These results are taken from patent US3994974A, “α-Aminomethylbenzyl alcohol derivatives” (Yamanouchi Pharmaceutical Co., Ltd., priority 1972, dated 1976).

≈ marks a conversion by molar mass, not a printed value. Structures can show the parent of a compound that is named as a salt. Where two headings read alike, the source gives them in different places. Where only a bound is given, the exact number is not on record here.

Experiment [1] relates to isolated bronchial smooth muscle. Briefly: Activity on isolated bronchial smooth muscle (in vitro test), histamine dihydrochloride as spasmogen (Anti-histamine). The conditions noted are these: for EC50: Cavia porcellus, read-out: Anti-histamine ED50; for Anti-histamine relative activity: relative to control E (trimetoquinol) = 1.0, ED50 ratio, smaller = more potent. It is filed as cell-based, guinea pig. The procedure:
(§1) Activity on isolated bronchial smooth muscle (in vitro test)
(§2) The trachea of a guinea pig was cut spirally and the isolated bronchial preparation was suspended in Magnus bath. Tyrode's solution was filled in a 50 ml bath and kept at 37° C. Then, 10-^5 g/ml of histamine dihydrochloride or methacholine chloride was added to a bath as spasmogen. After the contraction of the trachea reached a plateau, a test substance shown in the below-showing table was added to the preparation, cumulatively. The concentration producing 50% relaxation of the contracted bronchial muscle was designated as ED50.

Experiment [2] has the same test system. Briefly: Activity on isolated bronchial smooth muscle (in vitro test), methacholine chloride as spasmogen (Anti-methacholine Chloride). The format is cell-based, guinea pig. The conditions noted are these: for EC50: Cavia porcellus, read-out: Anti-methacholine Chloride ED50; for Anti-methacholine Chloride relative activity: relative to control E (trimetoquinol) = 1.0, ED50 ratio, smaller = more potent. The procedure: as §1, §2

A further experiment relates to Histamine-asthma. The experiment is described as follows: Activity on experimental asthma (in vivo test), Histamine-asthma. Conditions: Cavia porcellus, sc, read-out: Histamine-asthma ED50. Set-up: species or system guinea pig. The procedure:
(§3) Activity on experimental asthma (in vivo test)
(§4) A guinea pig was placed in a 11 liter glass chamber and exposed to the spasmogen by means of a nebulizer. […] Drugs were administered subcutaneously to animals 30 minutes before application of the spasmogen. […] ED50 was calculated by the method of Litchfield-Wilcoxon [J. Pharmacol. Exptl. Therap, 96, 99-113 (1949)].

The subject of experiment [3] is Methacholine chloride-asthma. The experiment is described as follows: Activity on experimental asthma (in vivo test), Methacholine chloride-asthma. Set-up: species or system guinea pig. The conditions noted are these: Cavia porcellus, sc, read-out: Methacholine chloride-asthma Ed50. The procedure:
as §3, §4

Another experiment addresses T1, β1 (Canis lupus familiaris, UniProt P79148).
T1 construct: Mongrel dogs of either sex; from tissue; host or cells: heart of the living anesthetized mongrel dog (heart rate)
The experiment is described as follows: β1-action: heart rate response (ΔHR) in anesthetized dogs. The conditions noted are these: intravenous. It is filed as in vivo, Mongrel dogs. The method, then:
Mongrel dogs of either sex weighing about 10 Kg were anesthetized with pentobarbital Na, 30 mg/Kg intravenously. Arterial blood pressure was measured from a cannula in the right femoral artery and the pulse pressure used to trigger a ratemeter for a record of heart rate. (β1.action). Intravenous injections were made through a cannula in a femoral vein, and ED50bpm values were obtained from the does-response (ΔHR) curves. ED50bpm vs. ED50 ratios mean its own selectivity.

For the next experiment, the system named is β1 /β2. The experiment is described as follows: Selectivity (ratio of β1/β2), ED50bpm vs. ED50 in anesthetized dogs. The format is in vivo, Mongrel dogs.
A further experiment deals with T2, β2 (Canis lupus familiaris, UniProt P54833).
T2 construct: Mongrel dogs of either sex; from tissue; host or cells: airways of the living anesthetized mongrel dog (bronchial resistance)
The experiment is described as follows: β2-action: inhibition of histamine-induced increase in bronchial resistance in anesthetized dogs. Conditions: dog, intravenous, cumulative, 5 minutes before histamine 10 μg/Kg i.v. It is filed as in vivo, Mongrel dogs.

The mark [4] stands for this setting: subcutaneous, 30 minutes before 0.01% histamine dihydrochloride spray, Litchfield-Wilcoxon.
Setting [5] is: concentration producing 50% relaxation of contracted bronchial muscle, 10^-5 g/ml histamine dihydrochloride, guinea pig trachea, 37° C.
[6] abbreviates: concentration producing 50% relaxation of contracted bronchial muscle, 10^-5 g/ml methacholine chloride, guinea pig trachea, 37° C.
Where [7] appears, read: subcutaneous, 30 minutes before methacholine chloride spray, Litchfield-Wilcoxon.

T1 sequence (P79148 whole entry): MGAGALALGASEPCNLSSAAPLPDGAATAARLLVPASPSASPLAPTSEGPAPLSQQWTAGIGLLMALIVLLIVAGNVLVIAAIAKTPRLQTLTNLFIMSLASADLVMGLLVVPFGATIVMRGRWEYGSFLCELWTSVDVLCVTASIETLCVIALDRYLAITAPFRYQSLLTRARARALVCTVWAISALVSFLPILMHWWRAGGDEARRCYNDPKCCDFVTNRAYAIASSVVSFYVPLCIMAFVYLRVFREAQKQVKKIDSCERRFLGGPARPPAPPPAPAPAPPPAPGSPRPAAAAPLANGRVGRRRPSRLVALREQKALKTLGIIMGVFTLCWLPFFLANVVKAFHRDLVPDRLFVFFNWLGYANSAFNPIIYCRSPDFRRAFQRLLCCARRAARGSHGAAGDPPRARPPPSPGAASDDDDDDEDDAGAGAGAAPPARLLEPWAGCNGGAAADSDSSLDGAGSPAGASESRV
T2 sequence (P54833 whole entry): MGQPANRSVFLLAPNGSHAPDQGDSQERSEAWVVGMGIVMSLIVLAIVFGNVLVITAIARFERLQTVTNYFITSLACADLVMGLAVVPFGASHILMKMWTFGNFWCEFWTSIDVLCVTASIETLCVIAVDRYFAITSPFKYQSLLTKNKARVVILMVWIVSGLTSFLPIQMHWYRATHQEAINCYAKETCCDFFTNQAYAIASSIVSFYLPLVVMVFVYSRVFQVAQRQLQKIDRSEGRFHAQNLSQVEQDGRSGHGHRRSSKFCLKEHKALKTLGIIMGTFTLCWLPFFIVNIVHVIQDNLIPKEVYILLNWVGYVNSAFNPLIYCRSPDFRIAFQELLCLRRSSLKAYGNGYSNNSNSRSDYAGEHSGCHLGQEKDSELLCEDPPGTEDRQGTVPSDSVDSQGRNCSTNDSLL

What is called ED50 is the midpoint of the dose-response relation. For the compound `CC(Cc1ccc(O)cc1)NCC(O)c1ccc(O)c(NC=O)c1` (single isomer, unassigned) [Example 8, 3-formylamino-4-hydroxy-α-[N-(1-methyl-2-p-hydroxyphenylethyl)aminomethyl]benzyl alcohol [A] . 1/2 fumarate], in experiment [1], the EC50 turned out to be 0.00094 µg/mL and the Anti-histamine relative activity was determined as 0.35. Also, in experiment [2], the EC50 was 0.011 µg/mL and the “Anti-methacholine Chloride relative activity” value is 0.52. Further, the ED50 in the experiment with Histamine-asthma (setting [4]) is 1.9 µg/kg. Moreover, in experiment [3], the ED50 came to 2.6 µg/kg. The “β1-action ED50bpm” value on β1 came to 0.26 µg/kg. Moreover, in the experiment with β1 /β2, the “Selectivity (ratio of β1/β2)” value came to 8.38.
For `COc1ccc(CC(C)NCC(O)c2ccc(O)c(NC=O)c2)cc1` (single isomer, unassigned) [Example 22, 3-formylamino-4-hydroxy-α-[N-(1-methyl-2-p-methoxyphenylethyl)aminomethyl]benzyl alcohol [A] . 1/2 fumarate], in experiment [1], the EC50 is 0.00046 µg/mL and the Anti-histamine relative activity was found to be 0.17. In experiment [2], the EC50 came out at 0.0046 µg/mL and the “Anti-methacholine Chloride relative activity” value came to 0.22. Besides, in the experiment with Histamine-asthma, the 50% effective dose (ED50) is 3.6 µg/kg. The “β1-action ED50bpm” value on β1 turned out to be 0.72 µg/kg.
Turning to `CC(=O)Nc1cc(C(O)CNC(C)C)ccc1O.Cl` (stereo not drawn) [3-acetylamino-4-hydroxy-α-(isopropylaminomethyl)benzyl alcohol hydrochloride], the EC50 in experiment [1] (setting [5]) is 1 µg/mL; in experiment [2] (setting [6]) it was above 100 µg/mL. Also, in experiment [1], the Anti-histamine relative activity is recorded as 370. Moreover, the “Anti-methacholine Chloride relative activity” value in experiment [2] is listed as above 4760.
On to `CC(CCc1ccc(O)cc1)NCC(O)c1ccc(O)c(NC=O)c1` (stereo not drawn) [Example 19, 3-formylamino-4-hydroxy-α-[N-(1-methyl-3-p-hydroxyphenylpropyl)aminomethyl] benzyl alcohol . 1/2 fumarate . mono-hydrate], for which the results for the EC50 in experiment [1] (setting [5]) and in experiment [2] (setting [6]) were 0.00086 µg/mL and 0.0089 µg/mL, respectively. Moreover, the Anti-histamine relative activity in experiment [1] turned out to be 0.32. The “Anti-methacholine Chloride relative activity” value in experiment [2] worked out at 0.42. Further, the ED50 in the experiment with Histamine-asthma (setting [4]) worked out at 1.4 µg/kg; in experiment [3] (setting [7]), 8.1 µg/kg. Moreover, the “β1-action ED50bpm” value on β1 was 0.59 µg/kg. In the experiment on β1 /β2, the “Selectivity (ratio of β1/β2)” value is on record as 12.
As to `CC(C)NCC(O)c1ccc(O)c(N)c1` (stereo not drawn) [Known compound A, 3-amino-4-hydroxy-α-isopropylaminomethylbenzyl alcohol], in experiment [1], the EC50 turned out to be 0.3 µg/mL (≈ 1.43 µM) and the Anti-histamine relative activity came out at 111. In experiment [2], the EC50 stood at 3 µg/mL (≈ 14.3 µM) and the “Anti-methacholine Chloride relative activity” value worked out at 143.
As for `CCOC(=O)Nc1cc(C(O)CNC(C)C)ccc1O` (stereo not drawn) [Known compound B, 3-ethoxycarbonylamino-4-hydroxy-α-isopropylaminomethylbenzyl alcohol], the EC50 in experiment [1] (setting [5]) was 5 µg/mL (≈ 17.7 µM); in experiment [2] (setting [6]), above 100 µg/mL. Besides, the Anti-histamine relative activity in experiment [1] was 185. For the same compound, in experiment [2], the “Anti-methacholine Chloride relative activity” value is recorded as above 4760.
In the same order, the values of `CNC(=O)Nc1cc(C(O)CNC(C)C)ccc1O` (stereo not drawn) [Known compound C, 4-hydroxy-3-(N'-methylureido)-α-isopropylaminomethylbenzyl alcohol] are 0.09 µg/mL (≈ 0.337 µM), above 100 µg/mL, 3.33 and above 4760.
In the case of `CC(C)(C)NCC(O)c1ccc(O)c(CO)c1` (stereo not drawn) [Known compound D, 4-hydroxy-3-hydroxymethyl-α-tert-butylaminomethylbenzyl alcohol], the EC50 in experiment [1] (setting [5]) turned out to be 0.01 µg/mL (≈ 0.0418 µM); in experiment [2] (setting [6]), 0.096 µg/mL (≈ 0.401 µM). In experiment [1], the Anti-histamine relative activity is 3.7. In addition, the “Anti-methacholine Chloride relative activity” value in experiment [2] was 4.57. At β2, this compound returned an ED50 of 1.4 µg/kg. In addition, at β1, the “β1-action ED50bpm” value worked out at 7.0 µg/kg. The “Selectivity (ratio of β1/β2)” value in the experiment on β1 /β2 is 5.0.
Regarding `COc1cc(C[C@@H]2NCCc3cc(O)c(O)cc32)cc(OC)c1OC` [Known compound E, l-1-(3,4,5-trimethoxybenzyl)-6,7-dihydroxy 1,2,3,4-tetrahydroisoquinoline hydrochloride], the EC50 is 0.0027 µg/mL in experiment [1] (setting [5]) and 0.021 µg/mL in experiment [2] (setting [6]). In experiment [1], the Anti-histamine relative activity is 1.0. Besides, the “Anti-methacholine Chloride relative activity” value in experiment [2] amounted to 1.0. The results for the ED50 (with Histamine-asthma (setting [4]); in experiment [3] (setting [7])) were 11.3 µg/kg and 12.4 µg/kg, respectively.
Turning to `CC(C)NCC(O)c1ccc(O)c(O)c1` (stereo not drawn) [Known compound F, α-(isopropylaminomethyl) protocatechuyl alcohol], the EC50 amounted to 0.0055 µg/mL (≈ 0.026 µM) in experiment [1] (setting [5]) and 0.028 µg/mL (≈ 0.133 µM) in experiment [2] (setting [6]). Also, the Anti-histamine relative activity in experiment [1] turned out to be 2.04. The “Anti-methacholine Chloride relative activity” value in experiment [2] is 1.33. In addition, the ED50 came to 15.7 µg/kg in the experiment with Histamine-asthma (setting [4]) and 11.2 µg/kg in experiment [3] (setting [7]).
